The values below come from patent publication US20260234630A1, “Methods for Treating Multiple Myeloma” (Celgene Corporation, priority 2022, published 2026).

What all share (type): cell-based
The subject of one experiment is H929 cells. The experiment is described as follows: Gene expression changes by Affymetrix microarray in H929 cells. Particulars: POM 1 μM, 24 hour. How it is done: FIG. 1A-1F. Down regulation of UHRF1 transcription by IMiDs correlates with drug sensitivity of multiple myeloma. (1A) Volcano plot of protein expression changes determined by mass spectrometry in H929 cells at 24 hr of treatment with CC-220 (0.1 μM) or DMSO control. X axis, Log2fold change (FC); Y axis, significance,-log 10 [p-value]. […] (1B) Volcano plot of gene expression changes determined by Affymetrix microarray in H929 cells treated with POM (1 μM) or DMSO for 24 hr. X axis, Log2fold change (FC); Y axis, significance,-log 10 [p-value], n=2 technical replicates). […] (1C) Western blot analysis protein expression of UHRF1, Ikaros, Aiolos and ZFP91 in H929 cells treated with 1 μM POM for indicated time. (1D) qRT-PCR analysis of UHRF1 gene expression levels in cells as in (1C). Error bars represent the SEM from duplicate measurements. (1E) Western blot analysis protein expression of UHRF1 and indicated proteins in MM cells treated with DMSO (−) or 1 μM POM (+) for 3 days. GAPDH serves as a loading control. (1F) Thymidine incorporation of various MM cell lines treated with indicated dose of POM for 3 days. Error bars represent the SEM from technical replicates.
Given that UHRF1 has been reported to be oncogenic in other cancer types, including MM (Gu et al., 2020, BMC Biol, 18:33), the functions of UHRF1 in MM and the mechanisms underlying its gene regulation in response to immunomodulator drugs that binds to cereblon was explored.

A further experiment has as its system H3 and H3K27ac. Briefly: Western blot of global histone H3 and H3K27ac levels. The following applies: H929 and MM1.S cells, 1 μM POM, 24 hr. How it is done:
FIG. 7A-7B. UHRF1 expression is positively regulated by Ikaros, Aiolos and ZFP91 in MM1.S cells. (7A) Western blot analysis protein expression of UHRF1, Ikaro and Aiolos in stably transduced MM1.S cells after Dox induction (0, 20, or 50 ng/ml) for 3 days of non-target shRNA (shNT) or shRNAs targeting Ikaros (shIKZF1) or Aiolos (shIKZF3). (7B) Western blot analysis histone H3 and H3K27ac levels from H929 and MM1.S cells treated with DMSO or 1 μM POM for 24 hr.
Cells were lysed with cell lysis buffer (50 mM TrisHCl pH7.4, 250 mM NaCl, 0.5% Triton X100, 10% glycerol) supplemented with protease inhibitor cocktail. Cell lysates were subjected to sonication to breakdown nuclei and reduce viscosity caused by released genomic DNA. The protein concentration was measured by a Bradford Protein Assay (Bio-Rad). Samples were mixed with SDS sample buffer at 95° C. for 5 minutes. Whole cell lysates were resolved on NuPAGE™ 4-12% Bis-Tris Midi Protein Gels (Invitrogen) and transferred onto nitrocellulose membranes, which were then subjected to blocking in Intercept (TBS) Blocking Buffer (LI-COR). Proteins of interested were detected incubation with primary antibodies listed below at 4° C. overnight. Then the membrane was incubated with either IRDye 680RD goat anti-Mouse IgG (H+L) or IRDye 800CW goat anti-Rabbit IgG (H+L) (1:10,000; LI-COR). Bends were visualized by Odyssey Imaging System (LI-COR).

A further experiment has as its system H3K27ac at UHRF1 TSS. The experiment is described as follows: ChIP-qPCR of H3K27ac occupancy at UHRF1 gene. Particulars: H929 and MM1.S cells, 1 μM POM, 24 hr. The procedure: FIG. 2A-2E. UHRF1 expression is positively regulated by Ikaros and Aiolos in IMiDs sensitive MM cells. (2A) Western blot analysis protein expression of UHRF1, Ikaros, Aiolos, ZFP91 and Cereblon expression in control [shLuciferase (shLuc)] and cereblon knockdown (shCRBN) H929 cells treated with DMSO and 1 μM POM for 3 days. GAPDH, loading control. Arrow head, UHRF1. (2B) qRT-PCR analysis of UHRF1 gene expression levels in cells as in (2A). Data was normalized to ACTB. Error bars represent the SEM of technical duplicates. *** P<0.001 (Two-tailed unpaired Student's t-test). […]
ChIP-qPCR was performed using ChIP-IT Express Enzymatic kit (Active Motif) according to the manufacture manual with some modifications. […] DNA was purified using a PCR purification kit (Qiagen) and analyzed by qPCR using the Power SYBR Green PCR Master Mix.
Procedures afterward were performed according to the manufacture manual. Eluted DNA was purified using a PCR purification kit (Qiagen) and analyzed by quantitative real-time PCR on the Viia 7 Real Time PCR System using the Power SYBR Green PCR master mix (Applied Biosystems). Statistical differences were calculated using a […] unpaired Student's t-test.
Background: Real-time PCR tracks product formation cycle by cycle.

For the molecule `Nc1cccc2c1C(=O)N(C1CCC(=O)NC1=O)C2=O` (centres unmarked) [POM, pomalidomide], in the experiment on H929 cells, the “UHRF1 gene expression (microarray)” value is “one of the most significantly downregulated genes”; the “expression of interferon response genes IFIT1 and IFIT3” value is listed as “drastic induction”; the “gene expression of cell cycle regulators E2F1, MYB and CDC45” value is reported as “most significantly downregulated genes”. The “global levels of H3 and H3K27ac” value in the experiment on H3 and H3K27ac is on record as “not affected”. In addition, the “H3K27ac level at the UHRF1 TSS” value in the experiment on H3K27ac at UHRF1 TSS was “drastically reduced”.
